≈ marks a conversion by molar mass, not a printed value. Where a SMILES comes first, the peptide text is derived from it.
How the values were obtained:
[1] = tested on: E. faecalis ATCC29212; format: cell-based, Enterococcus faecalis
Text: (§1) The bacterial strains used were E. coli C498, E. coli C500, Escherichia coli UB1005 and its antibiotic supersusceptible derivative DC2 (22); a clinical isolate of Staphylococcus epidermidis (C621); coryneform bacterial strain Corynebacterium xerosis (C875); and E. coli ATCC 25922, Staphylococcus aureus ATCC 25923, Enterococcus faecalis ATCC 29212, Bacillus subtilis ATCC 6633 and Pseudomonas aeruginosa ATCC 27853, all from American Type Culture Collection.
(§2) Peptide antibacterial activity was assessed by the method of R. Hancock et al. (Wu & Hancock (1999), J. Biol. Chem., v. 274, pp. 29-35). Test strains of bacteria from Mueller Hinton agar (MHA) plates were inoculated into 5 ml Mueller Hinton Broth (MHB) in tubes and grown overnight at 37° C. on a shaker (180 rpm). Serial dilutions of test peptides (at 10 times the required test concentrations) were made in 0.01% acetic acid, 0.2% BSA, in polypropylene or coated glass tubes as follows: the test peptide was (a) dissolved in distilled water at 20 times the required maximum concentration (enough final volume for all tests to be performed on a given day); (b) diluted into an equal volume of 0.02% acetic acid, 0.4% BSA to give 10 times the required maximum concentration; (c) serial doubling dilutions were performed in 0.01% acetic acid, 0.2% BSA to provide serial dilutions of peptides at 10 times the required test concentrations, e.g., 640, 320, 160, . . . 2.5 μg/ml. (No deleterious effects of long-term storage of peptides in these media have been detected). Overnight bacterial cultures were diluted in MHB to give 2−7×10^5 colony forming units/ml. Bacterial suspension (100 μl) was dispensed in each well; controls without bacteria were maintained in parallel. To each well was added 11 μl of 10× test peptide and plates were incubated at 37° C. for 18-24 hours, and checked again at 40-48 hours. Plates were read visually and at 600 nm in a microplate reader (Molecular Devices).
(§3) A further number of the peptides of the invention were tested for antimicrobial activity against a range of Gram-positive and Gram-negative bacteria by the assay described immediately before Example 1.

[2] = tested on: E. coli DC2; assay: Assay of antibacterial activity (MIC), E. coli DC2; format: cell-based, Escherichia coli
Procedure, shortened: (§4)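 Broth microdilution MIC in Mueller Hinton broth, 2−7×10^5 CFU/ml inoculum from overnight cultures. Peptides serially doubled in 0.01% acetic acid, 0.2% BSA at 10× test concentration. Incubation 37° C for 18-24 h, rechecked at 40-48 h; growth read visually and at 600 nm.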

[3] = tested on: Human RBC; format: cell-based
Procedure, shortened: (§5)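 Washed rabbit or human erythrocytes (4% v/v in PBS pH 7.3) incubated with peptide dilutions 1 h at 37° C. Hemoglobin release read at 540 nm in supernatant, relative to PBS control and 0.1% Triton X-100 as 100% lysis; peptides tested at […].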

[4] = tested on: Rabbit RBC; format: cell-based
Procedure, shortened: as §5

[5] = tested on: P. aeruginosa ATCC27853; format: cell-based, Pseudomonas aeruginosa
Procedure, shortened: as §4

[6] = tested on: S. aureus ATCC25923; format: cell-based, Staphylococcus aureus
Text: as §1, §2, §3

[7] = tested on: Staphylococcus epidermidis (C621); format: cell-based; settings: C621
Procedure, shortened: (§6)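 Broth microdilution in Mueller Hinton Broth, inoculum 2−7×10^5 CFU/ml. Peptides serially doubled in 0.01% acetic acid, 0.2% BSA and added at 10× final concentration. Incubation 37° C for 18-24 h, rechecked at 40-48 h; growth read visually and at 600 nm.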

[8] = tested on: Corynebacterium xerosis (C875); format: cell-based
Procedure, shortened: as §6

[9] = tested on: C498: E. coli, wild type strain; format: cell-based; settings: C498: , wild type strain
Procedure, shortened: (§7)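 Broth microdilution in Mueller Hinton Broth, 2−7×10^5 CFU/ml, peptides added from 10× stocks serially diluted in 0.01% acetic acid, 0.2% BSA. Incubated at 37° C for 18-24 hours, rechecked at 40-48 hours; growth read visually and at 600 nm.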

[10] = tested on: C500: E. coli, antibiotic strain; format: cell-based; settings: C500: , antibiotic strain
Procedure, shortened: as §7

[11] = tested on: B. subtilis ATCC6633; format: cell-based, Bacillus subtilis
Text: as §1, §2, §3

[12] = tested on: E. coli UB1005; format: cell-based, Escherichia coli; settings: UB1005
Procedure, shortened: as §4

[13] = tested on: E. coli ATCC25922; format: cell-based
Procedure, shortened: as §4

## C[C@H](NC(=O)[C@H](C)NC(=O)[C@H](C)NC(=O)[C@H](Cc1ccccc1)NC(=O)[C@H](C)NC(=O)[C@H](CCCCN)NC(=O)[C@@H](N)CCCCN)C(=O)N[C@@H](C)C(=O)N[C@@H](C)C(=O)N[C@@H](Cc1ccccc1)C(=O)N[C@@H](C)C(=O)N[C@@H](C)C(=O)N[C@@H](Cc1c[nH]c2ccccc12)C(=O)N[C@@H](C)C(=O)N[C@@H](C)C(=O)N[C@@H](Cc1ccccc1)C(=O)N[C@@H](C)C(=O)N[C@@H](CCCCN)C(=O)N[C@@H](CCCCN)C(=O)N[C@@H](CCCCN)C(=O)N[C@@H](CCCCN)C(N)=O [Peptide F21] (H-KKAFAAAAAFAAWAAFAKKKK-NH2; N-terminus assumed)
[1]
  MIC E. faecalis ATCC29212: >32 µM
[2]; Table 5A
  MIC E. coli DC2: 4 µM (≈ 8.78 µg/mL)
[3]
  Human RBC (% lysis) 50 μM: 0 % lysis
  Human RBC (% lysis) 200 μM: 0 % lysis
[4]
  Rabbit RBC (% lysis) 50 μM: 1 % lysis
  Rabbit RBC (% lysis) 200 μM: 3 % lysis
[5]
  MIC P. aeruginosa ATCC27853: >32 µM
[6]
  MIC S. aureus ATCC25923: >32 µM
[7]
  MIC C621: 8 to 16 µM
  MIC S. epidermidis C621: 8 µM (≈ 17.6 µg/mL)
[8]
  MIC C. xerosis C875: 0.5 µM (≈ 1.1 µg/mL)
[9]
  MIC C498: 8 µM (≈ 17.6 µg/mL)
[10]
  MIC C500: 4 µM (≈ 8.78 µg/mL)
[11]
  MIC B. subtilis ATCC6633: 2 µM (≈ 4.39 µg/mL)
[12]
  MIC E. coli UB1005: 8 µM (≈ 17.6 µg/mL)
[13]
  MIC E. coli ATCC25922: 32 µM (≈ 70.3 µg/mL)

## C[C@H](NC(=O)[C@H](C)NC(=O)[C@H](C)NC(=O)[C@H](Cc1ccccc1)NC(=O)[C@H](C)NC(=O)[C@H](C)NC(=O)[C@H](C)NC(=O)[C@H](CCCCN)NC(=O)[C@@H](N)CCCCN)C(=O)N[C@@H](C)C(=O)N[C@@H](C)C(=O)N[C@@H](Cc1ccccc1)C(=O)N[C@@H](C)C(=O)N[C@@H](C)C(=O)N[C@@H](Cc1c[nH]c2ccccc12)C(=O)N[C@@H](C)C(=O)N[C@@H](C)C(=O)N[C@@H](Cc1ccccc1)C(=O)N[C@@H](C)C(=O)N[C@@H](C)C(=O)N[C@@H](C)C(=O)N[C@@H](CCCCN)C(=O)N[C@@H](CCCCN)C(=O)N[C@@H](CCCCN)C(=O)N[C@@H](CCCCN)C(N)=O [Peptide F25] (H-KKAAAFAAAAAFAAWAAFAAAKKKK-NH2; N-terminus assumed)
[1]
  MIC E. faecalis ATCC29212: >32 µM
[2]; Table 3, Gram-negative
  MIC E. coli DC2: 4 µM (≈ 9.92 µg/mL)
[2]; Table 5A
  MIC E. coli DC2: 4 µM (≈ 9.92 µg/mL)
[3]
  Human RBC (% lysis) 50 μM: 0 % lysis
  Human RBC (% lysis) 200 μM: 1 % lysis
[4]
  Rabbit RBC (% lysis) 50 μM: 0 % lysis
  Rabbit RBC (% lysis) 200 μM: 4 % lysis
[5]
  MIC P. aeruginosa ATCC27853: 8 µM (≈ 19.8 µg/mL)
[6]
  MIC S. aureus ATCC25923: >32 µM
[7]
  MIC C621: 0.5 to 2 µM
  MIC S. epidermidis C621: 2 µM (≈ 4.96 µg/mL)
[8]
  MIC C875: 0.25 µM (≈ 0.62 µg/mL)
  MIC C. xerosis C875: <0.25 µM
[9]
  MIC C498: 8 µM (≈ 19.8 µg/mL)
[10]
  MIC C500: 4 µM (≈ 9.92 µg/mL)
[11]
  MIC B. subtilis ATCC6633: 1 µM (≈ 2.48 µg/mL)
[12]
  MIC E. coli UB1005: 16 µM (≈ 39.7 µg/mL)
[13]
  MIC E. coli ATCC25922: >32 µM
